Experimental data from paper PMC3750913 (BMC Microbiology, 2013).
Read-outs that look alike come from different tables or passages of the source.

Legend:
HCMV [1] = assay: Viral attachment assay, method 2 (virus-specific cellular ELISA); format: cell-based, human cytomegalovirus; conditions: HCMV MOI 5, ELISA, 4°C; highest inhibitory concentration of the compounds
ADV-5 = assay: Dose-response antiviral assay (plaque assay); format: cell-based, human adenovirus type-5; conditions: Human adenovirus sp.; ADV-5 in A549 cells, co-treatment with viral inoculum; read-out: Antiviral effect EC50
DENV-2 [2] = assay: Dose-response antiviral assay (immunohistochemical staining plaque assay); format: cell-based, dengue virus type 2; conditions: DENV-2, Vero cells
MV [3] = assay: Viral inactivation assay; format: cell-based, measles virus
HCV [4] = assay: Viral attachment assay, method 1 (host cell infection); format: cell-based, hepatitis C virus
RSV [5] = assay: Viral inactivation assay; format: cell-based, respiratory syncytial virus
DENV-2 [6] = assay: Viral inactivation assay; format: cell-based, dengue virus type 2; conditions: Dengue virus
HCMV [7] = assay: Analysis of drug effects post viral entry; format: cell-based, human cytomegalovirus
MV [8] = assay: Viral penetration assay; format: cell-based, measles virus
HCMV [9] = assay: Viral inactivation assay; format: cell-based, human cytomegalovirus
RSV [10] = assay: Viral penetration assay; format: cell-based, respiratory syncytial virus
HCMV [11] = assay: Dose-response antiviral assay (plaque assay); format: cell-based, human cytomegalovirus; conditions: HCMV, HEL cells
MV [12] = assay: microbe, parasite or virus in culture; format: cell-based, measles virus; conditions: for EC50: MV in CHO-SLAM cells, co-treatment with viral inoculum, read-out: Antiviral effect EC50
RSV [13] = assay: Viral attachment assay, method 1 (host cell infection); format: cell-based, respiratory syncytial virus
DENV-2 [14] = assay: Viral cell-to-cell spread assay; format: cell-based, dengue virus type 2
[15] = In vivo toxicological and metabolic studies; ref [67], [68]; cited from earlier work
HCMV [16] = assay: Viral cell-to-cell spread assay; format: cell-based, human cytomegalovirus
XTT cytotoxicity assay = format: cell-based; conditions: 3 days treatment
Description: Cells (1 × 10^4 per well of 96-well plate) were treated with the test compounds for 3 days. Treatment effects on cell viability (%) and the 50% cytotoxic concentration (CC50) values of the test compounds were determined based on the XTT (2,3-bis[2-methoxy-4-nitro-5-sulfophenyl]-5-phenylamino)-carbonyl]-2H-tetrazolium hydroxide) assay as previously reported.

HCV [17] = assay: Viral attachment assay, method 2 (virus-specific cellular ELISA); format: cell-based, hepatitis C virus; conditions: HCV MOI 0.1, ELISA, 4°C; highest inhibitory concentration of the compounds
RSV [18] = assay: Viral cell-to-cell spread assay; format: cell-based, respiratory syncytial virus
RSV [19] = assay: Analysis of drug effects post viral entry; format: cell-based, respiratory syncytial virus
DENV-2 [20] = assay: Analysis of drug effects post viral entry; format: cell-based, dengue virus type 2; conditions: DENV-2; Figure 6
DENV-2 [21] = assay: Viral attachment assay, method 2 (virus-specific cellular ELISA); format: cell-based, dengue virus type 2; conditions: DENV-2 MOI 5, ELISA, 4°C; highest inhibitory concentration of the compounds
MV [22] = assay: Viral cell-to-cell spread assay; format: cell-based, measles virus
HCV [23] = assay: Viral inactivation assay; format: cell-based; conditions: Hepatitis C virus
HCV [24] = assay: Analysis of drug effects post viral entry; format: cell-based, hepatitis C virus
MV [25] = assay: Viral attachment assay, method 2 (virus-specific cellular ELISA); format: cell-based, measles virus; conditions: MV MOI 1, ELISA, 4°C; highest inhibitory concentration of the compounds
HCV [26] = assay: Viral penetration assay; format: cell-based, hepatitis C virus
HCV [27] = format: cell-based, hepatitis C virus; conditions: Huh-7.5 cells
RSV [28] = assay: Viral attachment assay, method 2 (virus-specific cellular ELISA); format: cell-based, respiratory syncytial virus; conditions: RSV MOI 5, ELISA, 4°C; highest inhibitory concentration of the compounds

With `O=C1O[C@H]2[C@@H]3OC(=O)c4cc(O)c(O)c(O)c4-c4c(O)c(O)c5oc(=O)c6c(c(O)c(O)c7oc(=O)c4c5c76)-c4c(cc(O)c(O)c4O)C(=O)OC[C@H]3OC(O)[C@@H]2OC(=O)c2cc(O)c(O)c(O)c2-c2c1cc(O)c(O)c2O` (mixture of isomers) [PUG, punicalagin] the “Window of antiviral effects: Attachment Method 2, inhibitory effect relative to DMSO control” value (HCMV [1]) was “++ (++ 50–75%)”, the EC50 (ADV-5) was 197 ± 20.1 µM and the “SI (selectivity index, CC50/EC50)” value (DENV-2 [2]) was 19.27. The “block of infection after pre-incubation of free virus with compound” value (MV [3]; MV, CHLA 90 μM, PUG 50 μM, Figure 3) was 60 – 80%, the inhibition at 50 µM (MV [3]; Measles morbillivirus, read-out: Window of antiviral effects: Free particle, inhibitory effect relative to DMSO control) was 50 to 75% and the “inhibition of virus attachment” value (HCV [4]; HCV, method 1, 4°C, Figure 4) was 90 – 100%. For the same compound, the inhibition at 50 µM (HCV [4]; Hepatitis C virus, Huh7.5, read-out: Window of antiviral effects: Attachment Method 1, inhibitory effect relative to DMSO control) was > 75%, the “block of infection after pre-incubation of free virus with compound” value (RSV [5]; RSV, CHLA 1 μM, PUG 2 μM, Figure 3) was 60 – 80% and the inhibition at 2 µM (RSV [5]; human respiratory syncytial virus, HEp-2, read-out: Window of antiviral effects: Free particle, inhibitory effect relative to DMSO control) was > 75%. For the same compound, the inhibition at 25 µM (DENV-2 [6]; DENV2, Vero, read-out: Window of antiviral effects: Free particle, inhibitory effect relative to DMSO control) was > 75%, the inhibition at 25 µM (DENV-2 [6]; DENV2, read-out: inhibition of infection after pre-incubation of free virus with compound) was ~100% and the “protection, treatment post-infection” value (HCMV [7]; HCMV, Figure 6) was 80 – 100%. For the same compound, the inhibition at 40 µM (HCMV [7]; Human betaherpesvirus 5, HEL, read-out: Window of antiviral effects: Post-infection, inhibitory effect relative to DMSO control) was > 75%, the “protection of the host cell from infection during virus penetration” value (from here on “protection of the host cell”) (MV [8]; MV, shift 4°C to 37°C, Figure 4) was 50 – 90% and the inhibition at 50 µM (MV [8]; Measles morbillivirus, read-out: Window of antiviral effects: Penetration, inhibitory effect relative to DMSO control) was > 75%. The inhibition at 40 µM (HCMV [9]; Human betaherpesvirus 5, HEL, read-out: Window of antiviral effects: Free particle, inhibitory effect relative to DMSO control) was > 75%, the inhibition at 40 µM (HCMV [9]; Human betaherpesvirus 5, read-out: inhibition of infection after pre-incubation of free virus with compound) was ~100% and the “protection of the host cell” value (RSV [10]; RSV, shift 4°C to 37°C, Figure 4) was 50 – 90%. For the same compound, the inhibition at 2 µM (RSV [10]; human respiratory syncytial virus, HEp-2, read-out: Window of antiviral effects: Penetration, inhibitory effect relative to DMSO control) was > 75%, the “SI (selectivity index, CC50/EC50)” value (HCMV [11]) was 17.86 and the EC50 (MV [12]) was 25.5 ± 2.94 µM. For the same compound, the “SI (selectivity index, CC50/EC50)” value (MV [12]; MV, CHO-SLAM cells) was 11.13, the EC50 (MV [12]; Measles morbillivirus) was < 35 µM and the “inhibition of virus attachment” value (RSV [13]; RSV, method 1, 4°C, Figure 4) was 90 – 100%. The inhibition at 2 µM (RSV [13]; human respiratory syncytial virus, HEp-2, read-out: Window of antiviral effects: Attachment Method 1, inhibitory effect relative to DMSO control) was > 75%, the “effect on viral plaque size (cell-to-cell spread)” value (“effect on viral plaque size” below) (DENV-2 [14]; DENV-2, Figure 7) was “unaffected and expanded further” and the inhibition at 25 µM (DENV-2 [14]; Dengue virus, DENV2, Vero, read-out: Window of antiviral effects: Cell-to-cell spread, inhibitory effect relative to DMSO control) was < 25%. The in vivo toxicity [15] was “minimal toxicity”, the “effect on viral plaque size” value (HCMV [16]; HCMV, Figure 7) was “near initial size” and the inhibition at 40 µM (HCMV [16]; Human betaherpesvirus 5, HEL, read-out: Window of antiviral effects: Cell-to-cell spread, inhibitory effect relative to DMSO control) was > 75%. For the same compound, the CC50 at 3 days (XTT cytotoxicity assay; African green monkey, Vero cells, XTT assay, read-out: CC50) was 151 ± 9.31 µM, the CC50 at 3 days (XTT cytotoxicity assay; Chinese hamster, CHO-SLAM cells, XTT assay, read-out: CC50) was 284 ± 11.5 µM and the CC50 at 3 days (XTT cytotoxicity assay; human, A549 cells) was 319 ± 4.99 µM. The CC50 at 3 days (XTT cytotoxicity assay; human, HEL cells) was 299 ± 9.14 µM, the CC50 at 3 days (XTT cytotoxicity assay; human, HEp-2 cells) was 265 ± 23.7 µM and the CC50 at 3 days (XTT cytotoxicity assay; human, Huh-7.5 cells) was 223 ± 3.41 µM. The “Window of antiviral effects: Attachment Method 2, inhibitory effect relative to DMSO control” value (HCV [17]) was “+++ (+++ > 75%)”, the “effect on viral plaque size” value (RSV [18]; RSV, Figure 7) was “unaffected and expanded further” and the inhibition at 2 µM (RSV [18]; human respiratory syncytial virus, HEp-2, read-out: Window of antiviral effects: Cell-to-cell spread, inhibitory effect relative to DMSO control) was < 25%. The “protection, treatment post-infection” value (RSV [19]; RSV, Figure 6) was < 25%, the inhibition at 2 µM (RSV [19]; human respiratory syncytial virus, HEp-2, read-out: Window of antiviral effects: Post-infection, inhibitory effect relative to DMSO control) was < 25% and the “protection, treatment post-infection” value (DENV-2 [20]) was < 25%. For the same compound, the “Window of antiviral effects: Attachment Method 2, inhibitory effect relative to DMSO control” value (DENV-2 [21]) was “+++ (+++ > 75%)”, the “effect on viral plaque size” value (MV [22]; MV, Figure 7) was “near initial size” and the inhibition at 50 µM (MV [22]; Measles morbillivirus, read-out: Window of antiviral effects: Cell-to-cell spread, inhibitory effect relative to DMSO control) was > 75%. For the same compound, the inhibition at 50 µM (HCV [23]; Huh7.5, read-out: Window of antiviral effects: Free particle, inhibitory effect relative to DMSO control) was > 75%, the inhibition at 50 µM (HCV [23]; read-out: inhibition of infection after pre-incubation of free virus with compound) was ~100% and the “protection, treatment post-infection” value (HCV [24]; HCV, Figure 6) was 80 – 100%. The inhibition at 50 µM (HCV [24]; Hepatitis C virus, Huh7.5, read-out: Window of antiviral effects: Post-infection, inhibitory effect relative to DMSO control) was > 75%, the “Window of antiviral effects: Attachment Method 2, inhibitory effect relative to DMSO control” value (MV [25]) was “++ (++ 50–75%)” and the “protection of the host cell” value (HCV [26]; HCV, shift 4°C to 37°C, Figure 4) was 50 – 90%. For the same compound, the inhibition at 50 µM (HCV [26]; Hepatitis C virus, Huh7.5, read-out: Window of antiviral effects: Penetration, inhibitory effect relative to DMSO control) was > 75%, the “SI (selectivity index, CC50/EC50)” value (HCV [27]) was 13.31 and the “Window of antiviral effects: Attachment Method 2, inhibitory effect relative to DMSO control” value (RSV [28]) was “+++ (+++ > 75%)”.
